Converted amounts (≈) assume the structure as drawn. “And” between values parts separate entries of the source, which are not always exact repeats. Equal entries are not always repeated.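 Compound exposure: 48 hours, 5 concentrations, 96-well plates. The concentration for 50% growth inhibition is given as GI50. TGI: total growth inhibition.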 Where only a bound is given, the exact number is not on record here.

Common to all, as to assay: NCI-60 cell line screen, 48 h
The subject of experiment [1] is OVCAR-5 ovarian.
The subject of experiment [2] is HCT-116 colon.
Experiment [3] deals with EKVX NSCLC.
The subject of experiment [4] is CCRF-CEM leukemia.
The subject of experiment [5] is SNB-19 CNS.
The subject of experiment [6] is TK-10 renal.
Experiment [7] concerns OVCAR-3 ovarian.
Experiment [8] concerns ACHN renal.
Experiment [9] relates to SNB-75 CNS.
In experiment [10] the test system is NCI/ADR-RES ovarian.
For experiment [11], the system named is PC-3 prostate.

`O=C(Nc1c(Cl)cc([N+](=O)[O-])cc1Cl)/C(=N\Nc1cccc(Cl)c1)c1c(O)c2ccccc2oc1=O`: the TGI in experiment [1], in experiment [2], in [3], in [4], in experiment [5] and in [6] was greater than 100 µM throughout. In addition, the TGI in experiment [7] and in experiment [8] was greater than 100 µM throughout.
For `CCOC(=O)/C=C/c1ccccn1`, the TGI in experiment [1], in experiment [9], in experiment [2], in [3], in experiment [4] and in [6] was greater than 100 µM throughout. Further, the TGI in [8] is greater than 100 µM.
For the molecule `CCN(CC)CCOc1ccc(C(=C2CCCCC2)c2ccc(OCCN(CC)CC)cc2)cc1`, the TGI was found to be 3.37 µM in experiment [1]; 2.94 µM in experiment [9]; 2.54 µM in experiment [2]; 3.36 µM in experiment [3]; 3.25 µM in experiment [4]; 4.03 µM in experiment [5]. The values for the TGI in experiment [6], in experiment [7] and in experiment [8] were 2.89 µM, 3.62 µM and 3.18 µM, respectively.
For `C[C@@H]1OC(=O)/C(=C\N(C)C)[C@H]2CC(=O)N(CCc3cn(S(=O)(=O)C(F)(F)F)c4ccccc34)C[C@H]12`, the TGI in [1], in [10], in experiment [9], in experiment [2], in experiment [3] and in experiment [5] was greater than 100 µM throughout. In addition, the TGI in [6], in experiment [7], in [8] and in experiment [11] was greater than 100 µM throughout.
For the molecule `CC(C)(C)NC1C2CCC(C)(C1O)C2(C)C` (stereo not given), the TGI in experiment [1] is greater than 100 µM; in [10] it was greater than 100 µM; in experiment [9], 26.2 µM; in experiment [2], greater than 100 µM; in [3] it was greater than 100 µM; in experiment [5], greater than 100 µM. For the same molecule, the TGI in experiment [6] is greater than 100 µM; in experiment [7], greater than 100 µM; in experiment [8], 21.6 µM; in experiment [11] it was greater than 100 µM.
Regarding `CC1OC(OC2CC(O)(C(=O)CO)Cc3c(O)c4c(c(O)c32)C(=O)c2ccccc2C4=O)CC(N)C1O` (stereo not given), the TGI came out at 0.721 µM in [1]; 0.107 µM in experiment [9]; 0.407 µM in experiment [2]; 1.82 µM in experiment [3]; 0.239 µM in [5]; 1.32 µM in [7]. The TGI was found to be 0.134 µM in [8] and 0.954 µM in [11].
With `Cc1ccc(C2=C(c3ccccc3)C(O)(c3ccc(C)cc3)C(c3ccccc3)=C2c2ccc(C)cc2)cc1`, the TGI in [1], in experiment [2], in [3], in [4], in experiment [5] and in experiment [6] was greater than 100 µM throughout. Moreover, the TGI in [7] and in experiment [8] was greater than 100 µM each time.
Take `CC(=O)NC(CCCCNC(=O)N(C)N=O)C(=O)NCc1ccccc1` (stereo not given): the TGI in experiment [1], in [9], in [2], in [3], in [4] and in experiment [5] was greater than 100 µM throughout. Also, the TGI in experiment [6], in experiment [7] and in experiment [8] was greater than 100 µM each time.
As for `NC(N)=Nc1nc2ccccc2[nH]1`, the GI50 in experiment [1] was 27.8 µg/mL (≈ 159 µM); in [10], 6.44 µg/mL (≈ 36.8 µM); in experiment [9], 150 µg/mL; in [2], 49.3 µg/mL; in experiment [3] it was 57.4 µg/mL (≈ 328 µM); in experiment [4], 4.49 µg/mL. The GI50 in experiment [5] was 137 µg/mL (≈ 782 µM); in [7], 38.4 µg/mL (≈ 219 µM). In addition, the TGI in experiment [1] was greater than 150 µg/mL; in [10], greater than 150 µg/mL; in [9], greater than 150 µg/mL; in experiment [2], greater than 150 µg/mL; in experiment [3], greater than 150 µg/mL; in experiment [4], 111 µg/mL. In addition, the TGI in experiment [5] and in experiment [7] was greater than 150 µg/mL each time.
For `CCOC(=O)c1cc(-c2ccc(Cl)cc2)c([N+](=O)[O-])n1C`, the TGI in experiment [1], in experiment [2], in experiment [3], in [4], in experiment [5] and in experiment [6] was greater than 10 µM each time. In addition, the TGI in experiment [7] and in experiment [8] was greater than 10 µM each time.
On to `O=c1[nH]c(=O)n(C2CC(O)C(CO)O2)cc1C#Cc1cc(F)cc(F)c1` (stereo not given), for which the TGI in experiment [1], in experiment [9], in [3], in experiment [4], in experiment [5] and in experiment [7] was greater than 100 µM throughout. The TGI in experiment [8] is greater than 100 µM.
Consider `NC(CCCCNC(=O)C(Cc1ccccc1)NC(=O)OCc1ccccc1)C(=O)NC(CCCCNC(=O)C(Cc1ccccc1)NC(=O)OCc1ccccc1)C(=O)NC(CCCCNC(=O)C(Cc1ccccc1)NC(=O)OCc1ccccc1)C(=O)NC(CCCCNC(=O)C(Cc1ccccc1)NC(=O)OCc1ccccc1)C(=O)NC(CCCCNC(=O)C(Cc1ccccc1)NC(=O)OCc1ccccc1)C(=O)NC(CCCCNC(=O)C(Cc1ccccc1)NC(=O)OCc1ccccc1)C(=O)O` (stereo not given), for which the TGI in experiment [1], in experiment [9], in experiment [2], in experiment [4], in experiment [5] and in experiment [6] was greater than 100 µM in each case. The TGI in experiment [7], in experiment [8] and in experiment [11] was greater than 100 µM throughout.
In the case of `COC(=O)C(Cc1nc2ccccc2[nH]c1=O)C(=O)C(=O)Nc1ccc(OC)cc1[N+](=O)[O-]` (stereo not given), the TGI in experiment [1], in experiment [2], in experiment [3], in experiment [4], in [5] and in experiment [6] was greater than 100 µM in each case. Further, the TGI in experiment [7] and in experiment [8] was greater than 100 µM in each case.
As for `CN(C(=O)c1cccs1)C(=S)N1CCN(c2ccccc2)CC1`, the TGI in experiment [1], in [9], in experiment [4], in experiment [5], in experiment [6] and in experiment [7] was greater than 100 µM throughout. Moreover, the TGI in [8] is greater than 100 µM.
For `O=C(CSc1nnc(-c2ccc(N=Cc3ccc(Cl)cc3)cc2)o1)Nc1cccc(Cl)c1`, the TGI in [9], in experiment [2], in [3], in [4], in [5] and in [6] was greater than 100 µM throughout. The molecule also came in with a TGI in [8] greater than 100 µM.
For `S=C(Nc1ccccc1)N1N=C2c3ccccc3CC[C@H]2[C@@H]1c1ccccc1`, the TGI in [1], in experiment [2], in [3], in experiment [5], in [6] and in experiment [7] was greater than 100 µM each time. The TGI in experiment [8] was greater than 100 µM.
For `COc1cc([C@@H]2c3cc4c(c(O)c3C[C@H]3COC(=O)[C@@H]32)OCO4)cc(OC)c1O`, the TGI was greater than 200 µM in [1]; greater than 78.6 µM in [9]; greater than 20 µM in experiment [2]; greater than 92.8 µM in [3]; greater than 35.6 µM in experiment [4]; greater than 200 µM in experiment [5]. Besides, the GI50 in [9] was 0.00421 µM; in experiment [2] it was 0.0039 µM; in experiment [4], 0.00337 µM and 0.02 µM.
In the case of `CSc1ccc2c(cc1=O)[C@@H](NC(=O)c1ccc(F)cc1)CCc1cc(O)c(O)c(O)c1-2`, the TGI in [1], in [9], in [2], in [3], in [4] and in experiment [5] was greater than 100 µM in each case. In addition, the TGI in [6], in [7] and in experiment [8] was greater than 100 µM each time.
With `Cc1nn(C)c2c1C(=O)N(C)CC(=O)N2C`, the TGI in [1], in experiment [9], in experiment [2], in experiment [3], in experiment [4] and in [5] was greater than 100 µM each time. Moreover, the TGI in [6], in experiment [7], in experiment [8] and in [11] was greater than 100 µM each time.
With `Cc1cc(NCCCCCCNc2cc(C)nc3ccc(Cl)cc23)c2cc(Cl)ccc2n1`, the TGI is 34.7 µM in [1]; 35.5 µM in [9]; 30.8 µM in experiment [2]; 30.4 µM in [3]; 83.6 µM in experiment [4]; 66.8 µM in experiment [5]. The TGI in [6] was 62.1 µM; in [7], 32 µM; in [8], greater than 100 µM.
For the molecule `CC[C@@]1(O)C(=O)OCc2c1cc1n(c2=O)Cc2c-1nc1ccccc1c2/C=N\NC(=O)C(C)N` (stereo not given in full), the TGI in [1] was greater than 100 µM; in experiment [10], 4.26 µM; in experiment [9], 4.33 µM; in [2] it was 23.6 µM; in experiment [3], greater than 100 µM; in experiment [5] it was 58.7 µM. The TGI in experiment [6], in [7] and in experiment [11] was greater than 100 µM throughout.
As to `COc1cc(C=O)c(-c2cc3c(cc2C=O)OCO3)c(OC)c1OC`, the TGI in experiment [1] was greater than 290 µM; in [2], 131 µM; in experiment [3], greater than 290 µM; in experiment [4], greater than 290 µM; in [5], greater than 290 µM; in [6], greater than 290 µM. The values for the TGI in [7] and in [8] were 153 µM and greater than 290 µM, respectively.
For `C/C(=N/N)c1ccc2[nH]c3c(C)cc([N+](=O)[O-])c(C)c3c2c1`, the TGI in experiment [9] was greater than 100 µM; in experiment [2], 17.8 µM; in experiment [3], 66.1 µM; in experiment [4], 30.1 µM; in [5], 31.8 µM; in [6] it was 28.4 µM. Also, the values for the TGI in experiment [7] and in experiment [8] were 30.7 µM and 21.6 µM, respectively.
Regarding `C[C@]12CCC(=O)C=C1CC[C@@H]1C2CC[C@]2(C)Nc3c(ncn3-c3ccc(F)cc3)CC12` (stereo not given in full), the TGI in experiment [1] was greater than 100 µM; in experiment [9], 77.4 µM; in experiment [2] it was 32.8 µM; in [3], greater than 100 µM; in [4], 82.6 µM; in [5] it was greater than 100 µM. Further, the TGI in [6], in [7], in experiment [8] and in experiment [11] was greater than 100 µM in each case.
In the case of `COc1cc2c(cc1O)C(C)Cc1cc3c(cc1N(C)CC2)OCO3` (stereo not given), the TGI was 54.9 µM in [1]; 9 µM in experiment [9]; greater than 35.2 µM in experiment [2]; greater than 34.9 µM in experiment [3]; greater than 46.8 µM in experiment [4]; greater than 87.4 µM in experiment [5]. The TGI in [6] was greater than 91.4 µM; in experiment [7], 8.83 µM; in experiment [8], 74.1 µM.
Consider `CCN(CC)c1nc(N(C)C)c2cc(OC)ccc2n1`, for which the TGI in [1], in experiment [10], in experiment [2], in [3], in experiment [5] and in experiment [6] was greater than 100 µM in each case. Also, the TGI in [7], in [8] and in experiment [11] was greater than 100 µM throughout.
Take `N#CC(c1cc(Cl)ncn1)c1nc2ccccc2s1` (stereo not given): the TGI in [1] was 59.3 µM; in experiment [10], 15.2 µM; in experiment [9], 28.1 µM; in experiment [2] it was 22.7 µM; in experiment [3] it was 58.1 µM; in experiment [5], 20.3 µM. Moreover, the figures for the TGI in experiment [6], in experiment [7] and in [8] were greater than 100 µM, 22.8 µM and 68.7 µM, respectively.
On to `O=C(c1ccccc1)c1c(CNCc2ccccc2)n(C(=O)c2ccccc2)c2ccccc12`, for which the TGI in experiment [1] was greater than 100 µM; in experiment [9] it was 27.5 µM; in experiment [2], greater than 100 µM; in experiment [4], greater than 100 µM; in experiment [5], greater than 100 µM; in experiment [6], greater than 100 µM. Further, the TGI was 65.7 µM in experiment [7] and greater than 100 µM in experiment [8].

(Values after PubChem BioAssay (NCI).)
